16 molecules from patent US20040121965A1, “Method of treating resistant tumors” (Wyeth Holdings Corporation, priority 2002, published 2004) can be followed below.

Where two headings read alike, the source gives them in different places.

The subject of test [1] is KB-3-1. In words: Cell survival assay (SRB), KB-3-1. The test is classed as cell-based, human. The source says:
Cells lines with previously known mechanisms of resistance. […] Res. 8: 207-218,1996); KB-3-1 (parental derived from an epidermoid carcinoma), KB-8.5, KB-V1 (Akiyama S-I, Fojo A, Hanover J A, Pastan I, Gottesman M M. Isolation and genetic characterization of human KB cell lines resistant to multiple drugs. Somatic Cell Mol. Gen., 11: 117-126,1985; Shen D-W, Cardarelli C, Hwang J, Cornwell M, Richert N, Ishii S, Pastan I, Gottesman MM. […] J. Biol. Chem., 261: 7762-7770, 1986); and HL-60 (parental derived from human leukemia) and HL60/AR (McGrath T., Center M. S. Adriamycin resistance in HL60 cells in the absence of detectable P-glycoprotein. Biochem. Res. Commun., 145:1171-1176,1987); A549 and A549.EpoB40 (He L., Yang C.-P.H., Horwitz S. B. Mutations in p-tubulin map to domains involved in regulation of microtubule stability in epothilone-resistant cell lines. Molecular Cancer Therapeutics. 1: 3-10, 2001). HCT-15 human colon carcinoma and DLD-1 human colon carcinoma are obtained from American Tissue Culture Collection. The MX-1W carcinoma is a Wyeth variant orginally obtained as MX-1 breast carcinoma from the National Cancer Institute. Cell lines selected for resistance to Representative Example 129. KB-3-1 cells are selected for resistance to Example 129 by chronically exposing cells to increasing concentrations of Example 129.
2.2. Cell Survival Assay: Standard Pharmacological Test Procedure. The concentration of candidate inhibitor required to inhibit 50% of cell growth (IC50) is done according to previously reported methods. […] Compounds are serially diluted into media as 2× stocks and 100 μl added to cells in duplicate. Compounds are incubated with cells for 3 days. At the end of the incubation period the sulforhodamine B (SRB) assay, which measures protein content as an assessment of cell survival, is performed as described previously (Skehan P, Storeng R, Scudiero D, Monks A, McMahon J, Vistica D, Warren J T, Bokesch H, Kenney S, Boyd MR. New calorimetric cytotoxicity assay for anticancer-drug screening. J Natl Cancer Inst 1990 Jul 4;82(13):1107-12) with some modification as follows. For KB-3-1 cells with 20% FCS, media is gently decanted and replaced with 200 μl of serum-free media mixed with cold 50% TCA for a final concentration of 10% TCA. The plates are incubated for 1 hr at 4° C., followed by washing 5 times in cold distilled water, then air dried overnight. The fixed cells are stained for 10 min with 80 μl of 0.04% SRB solution prepared in 1% glacial acetic acid. Stain is discarded and plates washed 5 times in 1% glacial acetic acid, then air-dried until completely dry. Stained cell product is dissolved in 150 μl of 10 mM Trizma Base and placed on a shaker for 20 minutes until fully dissolved. Absorbance is read on a Victor V multi-label plate reader (Perkin Elmer, Gaithersburg, Md.).

The subject of test [2] is KB-8-5 (MDR1+). In words: Cell survival assay (SRB), KB-8-5 (MDR1+). Particulars: for IC50: Homo sapiens.
The test system of test [3] is KB-V1 (MDR1++). In words: Cell survival assay (SRB), KB-V1 (MDR1++). The note with it: for IC50: Homo sapiens.
[4] abbreviates: Homo sapiens, KB 3-1, KB-3-1 cells (paclitaxel-sensitive parent), read-out: In vitro IC50 (nM) KB-3-1.
Where [5] appears, read: MDR1, read-out: In vitro IC50 (nM) KB85.
Setting [6] is: read-out: In vitro IC50 (nM) KBV1.
[7] abbreviates: MDR1, read-out: KB-8-5 (MDR1+) IC50, nM (N).
[8] abbreviates: read-out: KB-V1 (MDR1++) IC50, nM (N).

As a reminder, the IC50 is the point on the concentration scale where inhibition reaches its midpoint. `CN[C@H](C(=O)N[C@H](C(=O)N(C)[C@H](/C=C(\C)C(=O)NCCC#N)C(C)C)C(C)(C)C)C(C)(C)c1ccccc1` [Example 109, N,β,β-trimethyl-L-phenylalanyl-N^1-{(1S,2E)-4-[(2-cyanoethyl)amino]-1-isopropyl-3-methyl-4-oxo-2-butenyl}-N^1,3-dimethyl-L-valinamide]: the IC50 in test [1] (setting [4]) was 129 nM; in test [2] (setting [5]), 435 nM; in test [3] (setting [6]), no less than 3000 nM. Also, the “Ratio KB85/KB” value in test [2] amounted to 3.4. Moreover, the “Ratio KBV1/KB” value in test [3] was 23.3.
With `CN[C@@H](C(=O)N[C@H](C(=O)N(C)[C@H](/C=C(\C)C(=O)O)C(C)C)C(C)(C)C)C(C)(C)c1cc(C(F)(F)F)cc(C(F)(F)F)c1` [Example 67, N,β,β-trimethyl-3,5-bis(trifluoromethyl)-D-phenylalanyl-N^1-[(1S,2E)-3-carboxy-1-isopropylbut-2-enyl]-N^1,3-dimethyl-L-valinamide], the figures for the IC50 in test [1] (setting [4]), in test [2] (setting [5]) and in test [3] (read-out: In vitro IC50 KBV1) were 170 nM, 186 nM and greater than 3000 nM, respectively. In addition, in test [2], the “Ratio KB85/KB” value is on record as 1.1.
Consider `C=CC(C)(C)[C@H](NC)C(=O)N[C@H](C(=O)N(C)[C@H](/C=C(\C)C(=O)O)C(C)C)C(C)(C)C` [Example 121, (2E, 4S)-4-[((2S)-2-{[3,3-dimethyl-2-(methylamino)-4-pentenoyl]amino}-3,3-dimethylbutanoyl)(methyl)amino]-2,5-dimethyl-2-hexenoic Acid], for which the IC50 is 136 nM in test [1] (setting [4]), 186 nM in test [2] (setting [5]) and no less than 3000 nM in test [3] (setting [6]). For the same molecule, in test [2], the “Ratio KB85/KB” value is on record as 1.4. The “Ratio KBV1/KB” value in test [3] is reported as 22.0.
The corresponding values for `CN[C@H](C(=O)N[C@H](C(=O)N(C)[C@H](/C=C(\C)C(=O)O)C(C)C)C(C)(C)C)C(C)(C)c1ccc(OC)cc1OC` [Example 59, 2-Methoxy-N,O,β,β-tetramethyl-L-tyrosyl-N^1-[(1S,2E)-3-carboxy-1-isopropyl-2-butenyl]-N^1,3-dimethyl-L-valinamide] are 2.4 nM, 13.2 nM, 1070 nM, 5.5 and 446.7.
The corresponding values for `CN[C@H](C(=O)N[C@H](C(=O)N(C)[C@H](/C=C(\C)C(=O)O)C(C)C)C(C)(C)C)C(C)(C)c1cccc(OC)c1` [Example 46, 3-Methoxy-N,β,β-trimethylphenylalanyl-N^1-[(1S,2E)-3-carboxy-1-isopropyl-2-butenyl]-N^1,3-dimethyl-L-valinamide] are 3.5 nM, 5.9 nM, 224 nM, 1.7 and 64.0.
On the same counts, the results for `CN[C@@H](C(=O)N[C@H](C(=O)N(C)[C@H](/C=C(\C)C(=O)O)C(C)C)C(C)(C)C)C(C)(C)c1ccc(C)cc1` [Example 12, N,β,β,4-Tetramethyl-D-phenylalanyl-N^1-[(1S,2E)-3-carboxy-1-isopropyl-2-butenyl]-N^1,3-dimethyl-L-valinamide] are 17 nM, 27.5 nM, 1070 nM, 1.6 and 63.1.
As for `CN[C@@H](C(=O)N[C@H](C(=O)N(C)[C@H](/C=C(\C)C(=O)O)C(C)C)C(C)(C)C)C(C)(C)c1cccc(C(F)(F)F)c1` [Example 63, N,β,β-Trimethyl-3-(trifluoromethyl)-D-phenylalanyl-N^1-[(1S,2E)-3-carboxy-1-isopropyl-2-butenyl]-N^1,3-dimethyl-L-valinamide], the values for the half-inhibitory concentration (IC50) in test [1] (setting [4]), in test [2] (setting [5]) and in test [3] (setting [6]) were 19.1 nM, 45.7 nM and 1320 nM, respectively. Moreover, in test [2], the “Ratio KB85/KB” value came out at 2.4. Besides, the “Ratio KBV1/KB” value in test [3] came out at 69.0.
On the same counts, the results for `CN[C@H](C(=O)N[C@H](C(=O)N(C)[C@H](/C=C(\C)C(N)=O)C(C)C)C(C)(C)C)C(C)(C)c1ccccc1` [Example 107, (E,4S)-4-[((2S)-3,3-dimethyl-2-{[(2S)-3-methyl-2-(methylamino)-3-phenylbutanoyI]amino}butanoyl)(methyl)amino]-2,5-dimethyl-2-hexenamide] are 64.7 nM, 162 nM, no less than 3000 nM, 2.5 and 46.4.
On the same counts, the results for `CN[C@H](C(=O)N[C@H](C(=O)N(C)[C@H](/C=C(\C)C(=O)O)C(C)C)C(C)(C)c1ccc(C(=O)c2ccccc2)cc1)C(C)(C)c1ccccc1` [Example 90, N,β,β-trimethyl-L-phenylalanyl-4-benzoyl-N-[(1S,2E)-3-carboxy-1-isopropyl-2-butenyl]-N,β,β-trimethyl-L-phenylalaninamide] are 22.4 nM, 96.9 nM, no less than 3000 nM, 4.3 and 133.9.
On the same counts, the results for `CN[C@H](C(=O)N[C@H](C(=O)N(C)[C@H](/C=C(\C)C(=O)O)C(C)C)C(C)(C)C)C(C)(C)c1ccc(C)cc1` [Example 11, N,β,β,4-Tetramethyl-L-phenylalanyl-N^1-[(1S,2E)-3-carboxy-1-isopropyl-2-butenyl]-N^1,3-dimethyl-L-valinamide] are 1.5 nM, 2.6 nM, 55 nM, 1.7 and 36.7.
Regarding `CN[C@H](C(=O)N[C@H](C(=O)N(C)[C@H](/C=C(\C)C(=O)O)C(C)C)C(C)(C)C)C(C)(C)c1cn(C)c2ccccc12` [Hemiasterlin, hemiasterlin, reference compound], the IC50 in test [1] (Homo sapiens, KB 3-1, KB-3-1 parental, Table 3, read-out: KB-3-1 IC50, nM (N)) came to 0.319 ± 0.095 nM; in test [2] (setting [7]), 1 nM; in test [3] (setting [8]), 76.1 nM. The “RR, relative resistance” value in test [2] worked out at 3.2; in test [3] it was 239.
As for `COc1ccc(C[C@H]2NC(=O)/C=C/C[C@@H]([C@H](C)[C@H]3O[C@@H]3c3ccccc3)OC(=O)[C@H](CC(C)C)OC(=O)[C@H](C)CNC2=O)cc1Cl` [Cryptophycin-1], the IC50 in test [1] (KB-3-1 parental, Table 8, read-out: KB-3-1 IC50) was 0.0064 ± 0.0045 nM.
With `CCN[C@H](C(=O)N[C@H](C(=O)N(C)[C@H](/C=C(\C)C(=O)O)C(C)C)C(C)(C)C)C(C)(C)c1ccccc1` [Example 32, N-Ethyl-β,β-dimethylphenylalanyl-N^1-[(1S,2E)-3-carboxy-1-isopropyl-2-butenyl]-N^1,3-dimethyl-L-valinamide], in test [2], the “Ratio KB85/KB” value is reported as 2.6. Further, the “Ratio KBV1/KB” value in test [3] came out at 64.5.
`CN[C@H](C(=O)N[C@H](C(=O)N(C)[C@H](/C=C(\C)C(=O)NC(CCSC)C(=O)OC)C(C)C)C(C)(C)C)C(C)(C)c1ccccc1` (stereo partly shown) [Example 144, 2-(4-{[3,3-Dimethyl-2-(3-methyl-2-methylamino-3-phenyl-butyrylamino)-butyryl]-methyl-amino}-2,5-dimethyl-hex-2-enoylamino)-4-methylsulfanyl-butyric Acid Methyl]: the “Ratio KB85/KB” value in test [2] came to 14.9. In test [2] (setting [5]), the IC50 was found to be 55 nM.
Take `COc1cc2c(c(OC)c1OC)-c1ccc(OC)c(=O)cc1[C@@H](NC(C)=O)CC2` [colchicine, reference compound]: the “resistance of KB-8-5 cells” value in test [2] is 9.8 fold. For the same molecule, the IC50 was determined as 62.7 nM in test [2] (setting [7]) and 2440 nM in test [3] (setting [8]).
Consider `CCN[C@H](C(=O)N[C@H](C(=O)N(C)[C@H](/C=C(\C)C(=O)O)C(C)C)C(C)(C)C)C(C)(C)c1ccccc1` [Example 151, N-ethyl-β,β-dimethyl-L-phenylalanyl-N^1-[(1S,2E)-3-carboxy-1-isopropylbut-2-enyl]-N^1,3-dimethyl-L-valinamide], for which the “Ratio KB85/KB” value in test [2] was 1.5. In addition, the “Ratio KBV1/KB” value in test [3] is listed as 11.3.
